Results: US20190352341A1, “MODIFIED PEPTIDES AND THEIR USE FOR TREATING SYSTEMIC LUPUS ERYTHEMATOSUS” (IMMUPHARMA FRANCE SA, priority 2018, published 2019)
Square brackets hold non-standard residues; d marks the D form. Peptide text beside a SMILES is read from it. Met(O) = CS(=O)CC[C@H](N)C(=O)O; pS = N[C@@H](COP(=O)(O)O)C(=O)O

How the values were obtained:
MRL/lpr mice [1] = assay: Survival analysis in MRL/lpr mice; assay type: in vivo, mouse; details: female MRL/lpr mice, peptide intravenously from five weeks of age; NaCl control 25 weeks
Experimental: It has been determined that this mouse strain carries a mutation in the fas gene. Also, the MRL/lpr is a useful model to study behavioural and cognitive deficits found in autoimmune diseases and the efficacy of immunosuppressive agents [Monneaux et al., 2003, Eur. J. Immunol. 33, 287-296].
Five-week-old female MRL/lpr mice received P140 or peptide P140(MO) intravenously as described (Monneaux et al., 2003, Eur. J. Immunol. 33, 287-296). All experimental protocols were carried out with the approval of the local Institutional Animal Care and Use Committee (CREMEAS). As control, mice were injected with NaCl.
Twenty mice were used for each peptide or NaCl.
(§1) Statistical tests were performed using GraphPad Prism version 5.0. The two-way ANOVA test was used to analyze statistical significance of proteinuria differences between control and peptide-treated groups of mice. Survival of control and P140 analogue-treated female MRL/lpr mice was analyzed by the Kaplan-Meier method, and the significance of differences was determined by the log-rank test. For the other variables, statistical significance was assessed using the Student's t-test. p values less than 0.05 were considered significant.

MRL/lpr mice [2] = assay: Proteinuria analysis in MRL/lpr mice; assay type: in vivo, mouse; details: Albustix score, compared to the untreated mice
Experimental: Proteinuria of the above mice was measured in fresh urine using Albustix (Bayer Diagnostics) and was semi-quantitatively estimated according to a […] recommended by the manufacturer (no proteinuria=0; traces=1; 1+=2; 2+=3; 3+=4; 4+=5).
as §1

MRL/lpr mice [3] = assay: Cellularity analysis (peripheral blood) in MRL/lpr mice; assay type: in vivo, mouse; details: 100 μg/100 μL, 5 days after unique injection
Experimental: MRL/lpr mice were injected with 100 μg/100 μL of P140 or P140(MO) and cellularity (peripheral blood) was studied 5 days after this unique injection. The count includes all the leucocytes. In view of the low number of tested mice, a non parametric statistical test has been realised Mann-Whitney).

HSC70 protein = target: T1, HSC70 protein (Bos taurus, UniProt P19120); assay: Affinity of the peptides for HSC70 protein (BIAcore); assay type: binding, bovine
T1 construct: purchased Stressgen
T1 sequence (P19120 whole entry): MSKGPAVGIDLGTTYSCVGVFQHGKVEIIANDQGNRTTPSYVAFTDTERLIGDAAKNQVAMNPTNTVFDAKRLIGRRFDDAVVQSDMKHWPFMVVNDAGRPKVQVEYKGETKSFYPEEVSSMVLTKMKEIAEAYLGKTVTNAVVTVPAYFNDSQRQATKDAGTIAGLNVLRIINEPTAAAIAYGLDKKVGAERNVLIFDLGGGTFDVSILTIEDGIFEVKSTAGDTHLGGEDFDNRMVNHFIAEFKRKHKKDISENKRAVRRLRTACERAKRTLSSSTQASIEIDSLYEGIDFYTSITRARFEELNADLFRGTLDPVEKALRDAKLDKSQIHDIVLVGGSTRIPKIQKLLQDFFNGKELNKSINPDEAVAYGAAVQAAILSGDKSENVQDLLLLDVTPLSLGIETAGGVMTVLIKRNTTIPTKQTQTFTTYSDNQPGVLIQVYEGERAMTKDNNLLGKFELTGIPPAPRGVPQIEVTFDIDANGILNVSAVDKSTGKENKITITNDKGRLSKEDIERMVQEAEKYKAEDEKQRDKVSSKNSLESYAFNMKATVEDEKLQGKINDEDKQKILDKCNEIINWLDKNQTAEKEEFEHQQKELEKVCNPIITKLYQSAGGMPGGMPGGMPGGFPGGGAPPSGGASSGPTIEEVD
Experimental: BIAcore 3000 system (Biacore AB) was used to evaluate the binding of P140 peptides to HSC70 protein (Page et al., 2009, and 2011). Sensor chip CMS, surfactant P20, amine coupling kit containing N-hydroxysuccinimide (NHS) and N-ethyl-N′-dimethylaminopropyl carbodiimide (EDC), 2-(2-pyridinyldithio)ethaneamine (PDEA) and ethanolamine were from Biacore AB. Biosensor assays were performed with HBS-EP buffer as running buffer (10 mM HEPES, 150 mM NaCl, 3 mM EDTA, 0.005% surfactant P20, pH 7.4). The compounds were diluted in the running buffer. The sensor chip surface was regenerated after each experiment by injecting 10 μL of 10 mM HCl. Recombinant bovine HSC70 (Stressgen) was immobilized on flow cells of a CM5 sensor chip through its thiol groups using 35 μL PDEA in 50 mM borate buffer, pH 8.3 on the NHS/EDC-activated matrix. Then, 35 μL of HSC70 (100 μg/mL in formate buffer, pH 4.3) were injected until a response of 13,000 response units (RU) corresponding to 13 ng/mm^2 of HSC70 was immobilized. Twenty μL of a 50 mM cysteine/1 M NaCl solution was used to saturate unoccupied sites on the chip. The direct binding measurement of P140 peptides to HSC70 was carried out at 25° C. with a constant flow rate of 20 μL/min. P140 peptide and analogues were injected in the flux at different concentrations for 3 min, followed by a dissociation phase of 3 min. The kinetic parameters were calculated using the BIAeval 3.1 software on a personal computer. Analysis was performed using the simple 1:1 Langmuir binding model. The specific binding profiles were obtained after subtracting the response signal from the control empty channel and from blank-buffer injection. The fitting to each model was judged by the χ^2 value and randomness of residue distribution compared to the theoretical model.

[4] = Stability of the peptides at 37° C. (HPLC peak area); assay type: physicochemical; details: for 95% of stability (predicted): time to 95% from linear equation; for Stability (%) Linear equation: slope: y = stability %, x = days; for Stability (%): 10% mannitol
Experimental: The stability of the peptide SEQ ID NO: 1 in which the serine at position 10 is phosphorylated and the methionine at position 4 is oxydized (P140(MO)), and the peptide SEQ ID NO: 1 in which the serine at position 10 is phosphorylated (P140) was measured at 37° C., in a solution of 10% (v/v) mannitol. For each peptide, 3 concentrations have been tested: 200, 100 and 50 μg/mL.
At the indicated time, the integrity of P140 and P140(MO) peptides was measured in saline by high-performance liquid chromatography from the area of the peak corresponding to the intact peptide.
Stability is measured by using the HPLC peak surface.

[5] = BIAcore, 25° C., 1:1 Langmuir model, global fit

## CC[C@H](C)[C@H](NC(=O)[C@H](Cc1ccccc1)NC(=O)[C@H](C)NC(=O)[C@H](Cc1ccc(O)cc1)NC(=O)CNC(=O)[C@H](CCCNC(=N)N)NC(=O)[C@@H]1CCCN1C(=O)[C@H](CCCCN)NC(=O)CNC(=O)[C@H](COP(=O)(O)O)NC(=O)[C@H](CCCNC(=N)N)NC(=O)[C@H](CCCCN)NC(=O)[C@H](CO)NC(=O)[C@H](Cc1ccc(O)cc1)NC(=O)[C@@H](NC(=O)[C@H](CC[S+](C)[O-])NC(=O)[C@H](Cc1c[nH]cn1)NC(=O)[C@@H](NC(=O)[C@@H](N)CCCNC(=N)N)[C@@H](C)CC)C(C)C)C(=O)N[C@@H](CCC(=O)O)C(=O)N[C@@H](Cc1ccc(O)cc1)C(=O)O (stereo partly shown) [P140(MO), RIHM(O)VYSKRS(PO3H2)GKPRGYAFIEY] (H-RIH[Met(O)]VYSKR[pS]GKPRGYAFIEY-OH)
MRL/lpr mice [1]
  Median survival of mice: > 40 weeks
MRL/lpr mice [2]
  Proteinuria: less important and appears lately
MRL/lpr mice [3]
  Peripheral hypercellularity (leucocytes in peripheral blood): decrease peripheral hypercellularity
HSC70 protein; BIAcore, 25° C., 1:1 Langmuir model
  Rmax: 39 RU
HSC70 protein; [5]
  KA: 524000 M⁻¹
  kd: 0.0022 s⁻¹
HSC70 protein; peptide 1.56 μM
  RI: 14 RU
  Req: 17.6 RU
  kobs: 0.004 s⁻¹
HSC70 protein; peptide 3.12 μM
  RI: 18.7 RU
  Req: 242 RU
  kobs: 0.0058 s⁻¹
HSC70 protein; peptide 6.25 μM
  RI: 25.9 RU
  Req: 29.9 RU
  kobs: 0.0094 s⁻¹
HSC70 protein; peptide 12.5 μM
  RI: 36.9 RU
  Req: 33.9 RU
  kobs: 0.0166 s⁻¹
HSC70 protein; peptide 25 μM
  RI: 53.4 RU
  Req: 36.3 RU
  kobs: 0.031 s⁻¹
[4]; 50 μg/mL
  Stability (%) Linear equation: intercept: 99.677
  95% of stability (predicted): 2 years
  Stability (%) Linear equation: slope: y = −0.0064x +
[4]; 100 μg/mL
  Stability (%) Linear equation: intercept: 100.11
  95% of stability (predicted): 2 years +
  Stability (%) Linear equation: slope: y = −0.0064x +
[4]; 200 μg/mL
  95% of stability (predicted): ∞
[4]; 50 μg/mL, day 0
  Stability (%): 100%
[4]; 50 μg/mL, day 20
  Stability (%): 100%
[4]; 50 μg/mL, day 40
  Stability (%): 100%
[4]; 50 μg/mL, day 100
  Stability (%): 99.4%
[4]; 100 μg/mL, day 0
  Stability (%): 100%
[4]; 100 μg/mL, day 20
  Stability (%): 99.1%
[4]; 100 μg/mL, day 40
  Stability (%): 99.5%
[4]; 100 μg/mL, day 100
  Stability (%): 99.1%
[4]; 200 μg/mL, day 0
  Stability (%): 100%
[4]; 200 μg/mL, day 20
  Stability (%): 100%
[4]; 200 μg/mL, day 40
  Stability (%): 100%
[4]; 200 μg/mL, day 100
  Stability (%): 100%
